Structures can show the parent of a compound that is named as a salt.
Columns and labels:
[1] = tested on: Tyr::CreER; B-RafV600E/+; Ptenlox/+ and Tyr::CreER; B-RafV600E/+; Ptenlox/lox mice; assay: Genetically-initiated model of melanoma progression; format: in vivo, mouse
Procedure: The Tyr::CreER; B-Raf^V600E/+; Pten^lox/+/Tyr::CreER; B—Raf^V600E/+; Pten^lox/lox conditional model of melanoma progression was previously established and characterized by Dankort et al. (2009). Briefly, melanoma in these mice was induced at 6 weeks of age by intraperitoneally injecting 4-HT (H6278, 70% isomer, Sigma-Aldrich, St Louis, Mo.) at 25 mg/kg administered in peanut oil on three consecutive days. The 4-HT stock solution was prepared by dissolving it in 100% EtOH at 50 mg/mL by heating at 45° C. for 5 min and mixing. Once dissolved, the stock 4-HT solution was then diluted by 10-fold in peanut oil, yielding a 5 mg/mL 4-HT working solution that was then injected into mice. After the first 4-HT injection, mice were blindedly assigned to receive either a control diet or a diet supplemented with GW3965 (100 mg/kg). Mice were examined three times a week for the presence and progression of melanoma lesions. At day 35, dorsal skin samples were harvested from control-treated and GW3965-treated mice, fixed in 4% PFA and photographed at 10×. The percentage of pigmented melanoma lesion area out of the total skin area was quantified using ImageJ. For survival analyses, mice were monitored daily for melanoma progression and euthanized according to a standard body condition score, taking into account initial signs of moribund state and discomfort associated with the progression of melanoma burden. Post-mortem, the lungs, brains, and salivary glands were harvested and examined for the presence of macroscopic melanoma lesions.

[2] = tested on: SK-Mel-2 human melanoma cells; assay: Subcutaneous SK-Mel-2 tumor growth in immunocompromised mice; format: in vivo; details: oral, GW3965-supplemented diet
MeWo cells = assay: Orthotopic metastasis assay (lung colonization after tumor excision); format: in vivo, human; details: oral, 100 mg/kg for 1 month post-tumor excision
Procedure: To determine the effect of GW3965 treatment on lung colonization by melanoma cells dissociated from an orthotopic site, 1×10^6 MeWo cells expressing a luciferase reporter were subcutaneously injected into both lower flanks of NOD Scid mice. Upon the formation of tumors measuring ˜300 mm^3 in volume, the tumors were excised and the mice were randomly assigned to a control diet or a GW3965-supplemented diet (100 mg/kg) treatment. One month after tumor excision, the lungs were extracted and lung colonization was measured by ex vivo bioluminescence imaging. To histologically confirm the extent of melanoma lung colonization, lungs were then fixed in 4% PFA overnight, paraffin-embedded, section into […] increments and stained for human vimentin (VP-V684, Vector Laboratories).

[3] = tested on: MeWo human melanoma cells; assay: Lung metastatic colonization by MeWo cells injected i.v. into NOD Scid mice; format: in vivo; details: for reduction in lung metastatic colonization: chow 20 mg/kg starting 10 days prior to cell injection
Procedure: (§1) Melanoma cells used for in vivo metastasis assays were transduced with a stably expressed retroviral construct encoding a luciferase reporter gene (Ponomarev et al., 2004), allowing us to monitor the in vivo progression of melanoma cells by bioluminescence imaging. The following numbers of melanoma cells, resuspended in 100 μL of PBS, were injected intravenously via the tail-vein: 4×10^4 MeWo cells, 2.5×10^5 HT-144 cells, 2×10^5 SK-Mel-334.2 cells, 5×10^4B16F10 cells, and 1×10^5 YUMM cells. The MeWo, HT-144, and SK-Mel-334.2 cells were injected into 6-8 week-old sex-matched NOD scid mice, while the B16F10 and YUMM cells were injected into 6-8 week-old sex-matched C57BL/6 mice. In all experiments assessing at the effects of GW3965 on metastasis formation, mice were pre-treated on a control diet or a GW3965-supplemented diet (20 mg/kg) for 10 days. To assess the effect of GW3965 treatment on brain metastasis, 1×10^5 MeWo brain-metastatic derivatives were injected intracardially into athymic nude mice. Immediately following injection, mice were randomly assigned to a control diet or GW3965-supplemented diet (100 mg/kg). To determine whether oral delivery of GW3965 can inhibit the progression of incipient metastasis, NOD Scid mice were intravenously injected with 4×10^4 MeWo cells and the cells were allowed to colonize the lungs for 42 days, after which mice were blindedly assigned to a control diet or a GW3965-supplemented diet (100 mg/kg) treatment.

[4] = tested on: MeWo brain-metastatic derivatives; assay: Brain metastasis assay, intracardiac injection into athymic nude mice; format: in vivo, human; details: oral, GW3965 diet 100 mg/kg from day 0
Procedure: as §1, with “To determine whether oral delivery of GW3965 can inhibit the progression of incipient metastasis, NOD Scid mice were intravenously injected with 4×10^4 MeWo cells and the cells were allowed to colonize the lungs for 42 days, after which mice were blindedly assigned to a control diet or a GW3965-supplemented diet (100 mg/kg) treatment.” left out

[5] = tested on: VEGF-induced endothelial recruitment; assay: In vivo matrigel plug assay; design: species or system mouse; details: VEGF 400 ng/mL + recombinant ApoE3 10 μg/mL
Procedure: 10 μg/mL recombinant human ApoE3 (4696, BioVision), 10 μg/mL BSA (A2153, Sigma Aldrich), or 400 ng/ml VEGF were mixed with matrigel (356231, BD Biosciences) as indicated. 400 μL of matrigel containing the indicated recombinant proteins were injected subcutaneously just above the ventral flank of immunocompromised NOD-SCID mice. Plugs were extracted on day 3 post-injection and fixed in 4% paraformaldehyde for 48 hours. Plugs were then paraffin-embedded and sectioned at 5-μm-thick increments. Plug cross-sectional sections were immunohistochemically stained using a primary antibody against the mouse endothelial antigen MECA-32 (Developmental Studies Hybridoma Bank, The University of Iowa, IA), detected by peroxidase-conjugated secondary antibody, and subsequently visualized by DAB oxidization. To quantify the extent of endothelial cell invasion into each matrigel plug, the number of endothelial cells was counted in 4-5 random fields for each plug, and the average number of endothelial cells per given plug area was calculated.

HUVEC's = assay: Endothelial migration and chemotaxis assays (cancer cell-free); design: species or system human; details: trans-well assay and gradient-based chemotactic assay
Procedure: Serum-starved HUVEC's were pulsed with Cell Tracker Red CMTPX dye for 45 minutes and seeded into HTS Fluoroblock trans-well inserts at a concentration of 1×10^5 HUVEC's in 0.5 mL starvation media per each insert. The assay was allowed to proceed for 16-18 hours at 37° C., and the inserts were processed and analyzed as described above (See Matrigel Invasion Assay).
HUVEC's were serum-starved in 0.2% FBS EGM-2 media for 16 hours and labeled with Cell Tracker Red CMTPX dye for 45 minutes. Meanwhile, the indicated amounts (1-5 jag) of recombinant human ApoE3 or BSA were mixed with 250 μL of matrigel (356231, BD Biosciences) and allowed to solidify at the bottom of a 24-well plate for 30 min. 250 μL of HUVEC EGM-2 media containing 0.2% FBS was then added to each matrigel-coated well, and […] HTS Fluoroblock inserts were fitted into each well. 1×10^5 HUVEC's, resuspended in 0.5 mL of starvation media, were seeded into each insert and allowed to migrate along the matrigel gradient for 16-18 hours at 37° C. Upon completion of the assay, the inserts were mounted on slides and analyzed as described above (See Matrigel Invasion Assay).

Compound | number of lymphatic metastases detected post-mortem ([1]; Ptenlox/lox mice, GW3965 100 mg/kg) | tumor progression ([1]; oral, GW3965 diet 100 mg/kg after melanoma initiation) | overall survival times ([1]; oral, GW3965 diet 100 mg/kg, Ptenlox/+ and Ptenlox/lox) | tumor growth inhibition [2] | inhibition of lung colonization by disseminated melanoma cells (MeWo cells) | survival times following metastatic colonization ([3]; GW3965-supplemented chow) | suppression of colonization by incipient lung metastases ([3]; GW3965 diet 100 mg/kg from d42) | number of macroscopic metastatic nodules ([3]; GW3965 diet 100 mg/kg from d42, lungs at d77) | reduction in metastatic colonization capacity ([3]; cells pre-treated with GW3965 1 μM for 48 hours) | in vivo melanoma metastasis (lung, bioluminescence) ([3]; chow containing GW3965 20 mg/kg, oral) | reduction in lung metastatic colonization ([3]; oral) | systemic dissemination and brain colonization [4] | suppression of VEGF-induced endothelial recruitment into subcutaneous matrigel plugs [5] | endothelial migration (HUVEC's)
O=C(O)Cc1cccc(OCCCN(Cc2cccc(C(F)(F)F)c2Cl)CC(c2ccccc2)c2ccccc2)c1 [GW3965 2, 3-[3-[N-(2-Chloro-3-trifluoromethylbenzyl)-(2,2-diphenylethyl)amino]propyloxy] phenylacetic acid hydrochloride] | decrease | attenuated | significantly extended | 49% | 17 fold | significantly prolonged | 28 fold | decreased | more than 50 fold | significant reduction | 31 fold | inhibited |  | 
O=S(=O)(c1ccccc1)N(CC(F)(F)F)c1ccc(C(O)(C(F)(F)F)C(F)(F)F)cc1 [T0901317 1] |  |  |  |  |  |  |  |  |  |  | 23 fold |  |  | 
recombinant human ApoE: recombinant human ApoE3 (4696, BioVision) |  |  |  |  |  |  |  |  |  |  |  |  | greater than 40 fold | sufficient to inhibit

Reference: patent publication US10945978B2, “Treatment and diagnosis of melanoma” (The Rockefeller University, priority 2012, dated 2021)
